In brackets after ≈: the same amount, converted by molar mass. Starred links: 1 amine or outer side, 2 acyl side, 3 side chain; linkers in the order of their positions; H or OH if unused. Positions of bridges follow the written chain, without caps; N, C: chain ends. Residues, ends and D or L forms follow the SMILES beside them. 2,2'Bipyridine(5,5'-diCH2) = c1cc(-c2ccc(C[*:2])cn2)ncc1C[*:1]; Naphthalene(2,6-diCH2) = c1cc2cc(C[*:2])ccc2cc1C[*:1]; X1 = C(=CC[*:2])C[*:1]
Assays:
[1] = tested on: Acinetobacter baumannii (A. baumannii); type: cell-based; settings: microbroth dilution, 20-24 hours at 37° C.
Procedure: (§1) Antimicrobial Activity Assay: The following microbroth dilution protocol was adapted from CLSI to determine the minimum inhibitory concentration (MIC) of StAMPs. Briefly, Mueller-Hinton broth (MHB) or cation-adjusted Mueller-Hinton broth (MHB II) was prepared and autoclaved. Then, a colony of bacterial cells was picked and grown overnight in broth at 37° C. and then diluted and allowed to grow again for 3-4 hours. Serial dilutions of peptide stocks in water (10 μl) were prepared using clear round-bottom polypropylene 96-well plates. Then 90 μl of bacteria in broth was added to give a final inoculum of 5×10^5 CFU/ml. The plates were then covered with porous tape to reduce evaporation and incubated for 20-24 hours at 37° C. The MIC was the minimum peptide concentration at which no visible bacterial growth was observed.

[2] = tested on: Pseudomonas aeruginosa (P. aeruginosa); type: cell-based; settings: microbroth dilution, 20-24 hours at 37° C.
Procedure: as §1

[3] = tested on: Staphylococcus aureus (S. aureus); type: cell-based; settings: microbroth dilution, 20-24 hours at 37° C.
Procedure: as §1

[4] = tested on: Klebsiella pneumoniae (K. pneumoniae); type: cell-based; settings: microbroth dilution, 20-24 hours at 37° C.
Procedure: as §1

[5] = tested on: Escherichia coli (E. coli); type: cell-based; settings: microbroth dilution, 20-24 hours at 37° C.
Procedure: as §1

[6] = 90 minute cytotoxicity assay (LDH release), renal toxicity; type: cell-based; settings: 90 minutes of incubation, LDH release; read-out: Inhibitory Concentration at 50% Cytotoxicity (IC50) Human Renal Proximal Tubule Epithelial Cells (RPTEC)
Method in brief: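 Released lactate dehydrogenase, read as absorbance at 490 nm after 10 min with assay reagent, serves as read-out. Renal proximal tubule epithelial cells received peptide serial dilutions or vehicle for 90 min at 37° C after overnight plating.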

[7] = 48 hours cytotoxicity assay (CellTiter-Glo), liver toxicity; type: cell-based, human; settings: 48 hours of incubation, CellTiter-Glo; read-out: Inhibitory Concentration at 50% Cytotoxicity (IC50) Human Liver Cells (HepG2)
Method in brief: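 Viability from CellTiter-Glo luminescence after StAMP dilution series or vehicle acted on HepG2 cells for 48 h at 37 °C. Cells were grown in EMEM plus 10% FBS and given 4 h to attach before dosing.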

SMILES | Minimum Inhibitory Concentration (MIC) A. baumannii [1] | Minimum Inhibitory Concentration (MIC) P. aeruginosa [2] | Minimum Inhibitory Concentration (MIC) S. aureus [3] | Minimum Inhibitory Concentration (MIC) K. pneumoniae [4] | Minimum Inhibitory Concentration (MIC) E. coli [5] | IC50 [6] | IC50 [7]
CC[C@H](C)[C@H](NC(=O)CN)C(=O)N[C@@H](Cc1ccccc1)C(=O)N[C@@H](CO)C(=O)N[C@@H](CCCCN)C(=O)N[C@@H](CC(C)C)C(=O)N[C@@H](C)C(=O)NCC(=O)N[C@@H](CCCCN)C(=O)N[C@H]1CSCc2ccc(nc2)-c2ccc(cn2)CSC[C@@H](C(=O)NCC(=O)N[C@@H](CC(C)C)C(=O)N[C@@H](CCCCN)C(=O)NCC(N)=O)NC(=O)[C@H]([C@@H](C)CC)NC(=O)[C@H](CC(C)C)NC(=O)[C@H](CC(C)C)NC(=O)[C@H](CC(N)=O)NC(=O)[C@H](CCCCN)NC(=O)[C@H]([C@@H](C)CC)NC1=O [compound 72] (H-GIFSKLAGKCIKNLLICGLKG-NH2; linker 10-17 via 2,2'Bipyridine(5,5'-diCH2); N-terminus assumed) | 4 µg/mL | 32 µg/mL | 4 µg/mL | 8 µg/mL | 4 µg/mL | 19 µg/mL (≈ 8.06 µM) | 
CC[C@H](C)[C@H](NC(=O)CN)C(=O)N[C@@H](Cc1ccccc1)C(=O)N[C@@H](CO)C(=O)N[C@@H](CCCCN)C(=O)N[C@@H](CC(C)C)C(=O)N[C@@H](C)C(=O)NCC(=O)N[C@@H](CCCCN)C(=O)N[C@H]1CSCc2ccc3cc(ccc3c2)CSC[C@@H](C(=O)NCC(=O)N[C@@H](CC(C)C)C(=O)N[C@@H](CCCCN)C(=O)NCC(N)=O)NC(=O)[C@H]([C@@H](C)CC)NC(=O)[C@H](CC(C)C)NC(=O)[C@H](CC(C)C)NC(=O)[C@H](CC(N)=O)NC(=O)[C@H](CCCCN)NC(=O)[C@H]([C@@H](C)CC)NC1=O [compound 73] (H-GIFSKLAGKCIKNLLICGLKG-NH2; linker 10-17 via Naphthalene(2,6-diCH2); N-terminus assumed) | 4 µg/mL | 64 µg/mL | 4 µg/mL | 8 µg/mL | 8 µg/mL | 9 µg/mL (≈ 3.87 µM) | 
CC[C@H](C)[C@H](NC(=O)CN)C(=O)N[C@@H](Cc1ccccc1)C(=O)N[C@@H](CO)C(=O)N[C@@H](CCCCN)C(=O)N[C@@H](CC(C)C)C(=O)N[C@@H](C)C(=O)NCC(=O)N[C@@H](CCCCN)C(=O)N[C@@H](CCCCN)C(=O)N[C@H](C(=O)N[C@@H](CCCCN)C(=O)N[C@H]1CSCc2ccc(nc2)-c2ccc(cn2)CSC[C@@H](C(=O)NCC(N)=O)NC(=O)[C@H](CC(C)C)NC(=O)CNC(=O)[C@H](CO)NC(=O)[C@H]([C@@H](C)CC)NC(=O)[C@H](CC(C)C)NC(=O)[C@H](CC(C)C)NC1=O)[C@@H](C)CC [compound 81] (H-GIFSKLAGKKIKCLLISGLCG-NH2; linker 13-20 via 2,2'Bipyridine(5,5'-diCH2); N-terminus assumed) | 4 µg/mL | 32 µg/mL | >64 µg/mL | 8 µg/mL | 4 µg/mL |  | 57 µg/mL (≈ 24.5 µM)
CC[C@H](C)[C@H](NC(=O)CN)C(=O)N[C@@H](Cc1ccccc1)C(=O)N[C@@H](CO)C(=O)N[C@@H](CCCCN)C(=O)N[C@@H](CC(C)C)C(=O)N[C@@H](C)C(=O)NCC(=O)N[C@@H](CCCCN)C(=O)N[C@@H](CCCCN)C(=O)N[C@H](C(=O)N[C@@H](CCCCN)C(=O)N[C@H]1CSCc2ccc3cc(ccc3c2)CSC[C@@H](C(=O)NCC(N)=O)NC(=O)[C@H](CC(C)C)NC(=O)CNC(=O)[C@H](CO)NC(=O)[C@H]([C@@H](C)CC)NC(=O)[C@H](CC(C)C)NC(=O)[C@H](CC(C)C)NC1=O)[C@@H](C)CC [compound 82] (H-GIFSKLAGKKIKCLLISGLCG-NH2; linker 13-20 via Naphthalene(2,6-diCH2); N-terminus assumed) | 4 µg/mL | 32 µg/mL | >64 µg/mL | 8 µg/mL | 4 µg/mL |  | 23 µg/mL (≈ 10 µM)
CC[C@H](C)[C@H](NC(=O)CN)C(=O)N[C@@H](Cc1ccccc1)C(=O)N[C@@H](CO)C(=O)N[C@@H](CCCCN)C(=O)N[C@@H](CC(C)C)C(=O)N[C@@H](C)C(=O)NCC(=O)N[C@@H](CCCCN)C(=O)N[C@@H](CCCCN)C(=O)N[C@H](C(=O)N[C@@H](CCCCN)C(=O)N[C@@H](CC(N)=O)C(=O)N[C@H]1CSCc2ccc(nc2)-c2ccc(cn2)CSC[C@@H](C(N)=O)NC(=O)[C@H](CCCCN)NC(=O)[C@H](CC(C)C)NC(=O)CNC(=O)[C@H](CO)NC(=O)[C@H]([C@@H](C)CC)NC(=O)[C@H](CC(C)C)NC1=O)[C@@H](C)CC [compound 84] (H-GIFSKLAGKKIKNCLISGLKC-NH2; linker 14-21 via 2,2'Bipyridine(5,5'-diCH2); N-terminus assumed) | 8 µg/mL | 32 µg/mL | >64 µg/mL | 16 µg/mL | 4 µg/mL |  | 105 µg/mL (≈ 43.7 µM)
CC[C@H](C)[C@H](NC(=O)CN)C(=O)N[C@@H](Cc1ccccc1)C(=O)N[C@@H](CO)C(=O)N[C@@H](CCCCN)C(=O)N[C@@H](CC(C)C)C(=O)N[C@@H](C)C(=O)NCC(=O)N[C@@H](CCCCN)C(=O)N[C@@H](CCCCN)C(=O)N[C@H](C(=O)N[C@@H](CCCCN)C(=O)N[C@@H](CC(N)=O)C(=O)N[C@H]1CSCc2ccc3cc(ccc3c2)CSC[C@@H](C(N)=O)NC(=O)[C@H](CCCCN)NC(=O)[C@H](CC(C)C)NC(=O)CNC(=O)[C@H](CO)NC(=O)[C@H]([C@@H](C)CC)NC(=O)[C@H](CC(C)C)NC1=O)[C@@H](C)CC [compound 85] (H-GIFSKLAGKKIKNCLISGLKC-NH2; linker 14-21 via Naphthalene(2,6-diCH2); N-terminus assumed) | 4 µg/mL | 16 µg/mL | 64 µg/mL | 32 µg/mL | 4 µg/mL |  | 87 µg/mL (≈ 36.7 µM)
CC[C@H](C)[C@H](NC(=O)CN)C(=O)N[C@@H](Cc1ccccc1)C(=O)N[C@@H](CO)C(=O)N[C@@H](CCCCN)C(=O)N[C@@H](CC(C)C)C(=O)N[C@H]1CSCC=CCSC[C@@H](C(=O)N[C@@H](CCCCN)C(=O)N[C@@H](CC(N)=O)C(=O)N[C@@H](CC(C)C)C(=O)N[C@@H](CC(C)C)C(=O)N[C@H](C(=O)N[C@@H](CO)C(=O)NCC(=O)N[C@@H](CC(C)C)C(=O)N[C@@H](CCCCN)C(=O)NCC(=O)N[C@@H](C)C(=O)N[C@@H](CCCCN)C(=O)O)[C@@H](C)CC)NC(=O)[C@H](CCCCN)NC(=O)[C@H](CCCCN)NC(=O)CNC1=O [compound 100] (H-GIFSKLCGKKCKNLLISGLKGAK-OH; linker 7-11 via X1) | 16 µg/mL | >64 µg/mL | >64 µg/mL | >64 µg/mL | 32 µg/mL |  | > 200 µg/mL
